Patent US20140329766A1, “Prophylactic Compositions for Management of Microbial Infections in Patients with Brain Injury” (UTI LIMITED PARTNERSHIP, priority 2011, published 2014)

Key:
IFNγ = experiment: Serum cytokine IFNγ level in peripheral blood (Luminex); type: in vivo; details: post-ischemic mice 24 h after MCAO; α-GalCer 2 μg/mouse i.v. 2 h after MCAO (FIG. 43A)
Procedure: Levels of the cytokine IFNγ present in peripheral blood were determined by collecting blood samples by cardiac puncture, which were then allowed to clot at room temperature for at least 30 mins. The samples were then centrifuged at 400×g for 10 mins for the retrieval of serum. The serum samples were analyzed for the cytokine IFNγ by using a multiplex mouse cytokine/chemokine kit, and a Luminex 200 apparatus according to manufacturer's instructions. The data were analyzed with the StarStation V.2.3 software from Applied Cytometry Systems (UK).

hepatic iNKT cells = experiment: Spinning disk confocal intravital microscopy of the liver: crawling behaviour of GFP+ (iNKT) cells; type: in vivo, mice; details: Cxcr6gfp/+ mice without MCAO (FIGS. 31A, 31B)
Procedure: Murine liver intravital microscopy was performed as taught by Wong et al. (1997, A minimal role for selectins in the recruitment of leukocytes into the inflamed liver microvasculature. J. Clin. Invest. 99: 2782). Briefly, the tail vein of the anesthetized mice was cannulated to administer fluorescently labeled antibodies and/or additional anesthetic as required. Body temperature was maintained at 37° C. using an infrared heat lamp. Mice were placed in a right lateral position on an adjustable microscope stage. A lateral abdominal incision along the costal margin to the midaxillary line was made to exteriorize the liver, and all exposed tissues were moistened with saline-soaked gauze to prevent dehydration.
Cells were tracked using ImageJ software version 1.45 (NIH at http://rsb.info.nih.gov/ij/). Time-lapse videos exported from Volocity were imported as .mov file, and then converted to 8-bit grayscale. Fluorescent cells were adjusted using threshold control, and noise particles less than 2.0 pixels were removed by filter. Movement of cells was measured using manual tracking, and was calculated for each track using ImageJ output spreadsheets. The cell velocity was expressed in distance (μm) per time (min). 30-40 tracks from 10 mins videos of each animal in each experimental group were analyzed.
Excised livers were prepared for in vivo microscopic observation. Briefly, the liver was placed on the pedestal of an inverted microscope and the liver surface was then covered with a small piece of saline-soaked KimWipe to hold the organ in position. The liver microvasculature was visualized using a spinning-disk confocal microscopy and images were acquired with an Olympus IX81 inverted microscope using a ×10/0.40 UplanFL N objective. The microscope was equipped with a confocal light path (WaveFx, Quorum, Guelph, ON, CA) based on a modified Yokogawa CSU-10 head (Yokogawa Electric Corporation, Tokyo, Japan). Cxcr6^gfp/+ mice were used to visualize hepatic iNKT cells. Laser excitation wavelengths (Cobolt, Stockholm, Sweden) were used in rapid succession and visualized with the appropriate long-pass filters (Semrock, Rochester, N.Y.). Typical exposure time for each excitation wavelength was 300 milli-seconds. A 512×512 pixel back-thinned electron-multiplying charge-coupled device camera (C9100-13, Hamamatsu, Bridgewater, N.J.) was used for fluorescence detection. Volocity Acquisition software (Improvision) was used to drive the confocal microscope. […] Behaviors of iNKT cells in the hepatic microvasculature were assessed.
Wildtype mice underwent the MCAO procedure as previously described in Example 1. […] The crawling behaviours of crawling GFP+ cells in livers from sham-operated control mice and post-ischemic mice were observed and quantified using the methods disclosed in Example 2.

For `CCCCCCCCCCCCCCCCCCCCCCCCCCC(=O)N[C@@H](COC1OC(CO)C(O)C(O)C1O)[C@H](O)[C@H](O)CCCCCCCCCCCCCC` (stereo partly drawn) [α-GalCer, α-galactosylceramide], the “systemic levels of endogenous IFN-γ” value (IFNγ) was “significantly increased” and the “crawling behaviour of liver iNKT cells after administration of the activator” value (hepatic iNKT cells) was “cessation of iNKTcells”.
